# In US6737383B1, “Herbicidal oxadiazolidines” (priority 1999, dated 2004):
# Columns and labels:
# [1] = test system: purple nutsedge; assay: Test B pre/postemergence purple nutsedge; type: in vivo, Cyperus rotundus
# Summary of the method: (§1)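 Response is a visual 0-to-10 score relative to untreated plants, where 0 means no effect and 10 means complete control, taken twelve to sixteen days after application. Treatments went onto soil at planting and onto foliage of 1- to 4-leaf plants, using a surfactant-containing non-phytotoxic solvent.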
# [2] = test system: wild oat; assay: Test B pre/postemergence wild oat; type: in vivo, Avena fatua
# Summary of the method: as §1
# [3] = test system: bedstraw; assay: Test B pre/postemergence bedstraw; type: in vivo, Galium aparine
# Summary of the method: as §1
# [4] = test system: corn; assay: Test B pre/postemergence corn; type: in vivo, Zea mays
# Summary of the method: as §1
# [5] = test system: surinam grass; assay: Test B pre/postemergence surinam grass; type: in vivo, Brachiaria decumbens
# Summary of the method: as §1
# [6] = test system: giant foxtail; assay: Test B pre/postemergence giant foxtail; type: in vivo, Setaria faberii
# Summary of the method: as §1
# [7] = test system: morningglory; assay: Test B pre/postemergence morningglory; type: in vivo, Ipomoea hederacea
# Summary of the method: as §1
# [8] = test system: crabgrass; assay: Test B pre/postemergence crabgrass; type: in vivo, Digitaria sanguinalis
# Summary of the method: as §1
# [9] = test system: cocklebur; assay: Test B pre/postemergence cocklebur; type: in vivo, Xanthium strumarium
# Summary of the method: as §1
# [10] = test system: pigweed; assay: Test B pre/postemergence pigweed; type: in vivo, Amaranthus retroflexus
# Summary of the method: as §1
# [11] = test system: sugar beet; assay: Test B pre/postemergence sugar beet; type: in vivo, Beta vulgaris
# Summary of the method: as §1
# [12] = test system: velvetleaf; assay: Test B pre/postemergence velvetleaf; type: in vivo, Abutilon theophrasti
# Summary of the method: as §1
# [13] = test system: wheat; assay: Test B pre/postemergence wheat; type: in vivo, Triticum aestivum
# Summary of the method: as §1
# [14] = test system: soybean; assay: Test B pre/postemergence soybean; type: in vivo, Glycine max
# Summary of the method: as §1
# [15] = test system: blackgrass; assay: Test B pre/postemergence blackgrass; type: in vivo, Alopecurus myosuroides
# Summary of the method: as §1
# [16] = test system: rape; assay: Test B pre/postemergence rape; type: in vivo, Brassica napus
# Summary of the method: as §1
# [17] = Postemergence, Rate 62 g/ha, scale 0 to 10, 0 is no effect, 10 is complete control
# [18] = Postemergence, Rate 125 g/ha, scale of 0 to 10 where 0 is no effect and 10 is complete control
# [19] = Preemergence, Rate 125 g/ha, scale of 0 to 10 where 0 is no effect and 10 is complete control
# [20] = Preemergence, Rate 250 g/ha, scale 0 (no effect) to 10 (complete control)
# [21] = Rate 62 g/ha, Preemergence, scale 0 to 10
# [22] = Rate 500 g/ha, Postemergence, scale 0 to 10, 0 is no effect, 10 is complete control
# [23] = Rate 500 g/ha, Preemergence, scale 0 to 10 (0 no effect, 10 complete control)
# [24] = Rate 250 g/ha, Postemergence, scale 0 to 10, 0 is no effect, 10 is complete control
smiles,measurement,setting,value
C#CCn1c(=O)on(C(=O)N(c2ccccc2)C(C)C)c1=O [Compound 754],"Plant response rating, Nutsedge",[1]; [17],0
same,Nutsedge plant response rating,[1]; [18],0
same,"Plant response rating, Nutsedge",[1]; [19],3
same,Nutsedge plant response rating,[1]; [20],3
same,Nutsedge plant response rating,[1]; [21],3
same,Nutsedge plant response rating,[1]; [22],0
same,Nutsedge plant response rating,[1]; [23],10
same,"Plant response rating, Wild oats",[2]; [17],0
same,"Plant response rating, Wild oats",[2]; [19],6
same,Wild oats plant response rating,[2]; [20],8
same,Wild oats plant response rating,[2]; [21],0
same,Wild oats plant response rating,[2]; [24],0
same,Wild oats plant response rating,[2]; [22],0
same,Wild oats plant response rating,[2]; [23],9
same,Bedstraw plant response rating,[3]; [18],0
same,"Plant response rating, Bedstraw",[3]; [19],0
same,Bedstraw plant response rating,[3]; [20],0
same,Bedstraw plant response rating,[3]; [21],0
same,Bedstraw plant response rating,[3]; [24],0
same,Bedstraw plant response rating,[3]; [23],0
same,"Plant response rating, Corn",[4]; [17],0
same,Corn plant response rating,[4]; [18],0
same,"Plant response rating, Corn",[4]; [19],0
same,Corn plant response rating,[4]; [20],0
same,Corn plant response rating,[4]; [21],0
same,Corn plant response rating,[4]; [24],2
same,Corn plant response rating,[4]; [22],5
same,Corn plant response rating,[4]; [23],0
same,"Plant response rating, B. signalgrass",[5]; [17],0
same,B. signalgrass plant response rating,[5]; [18],2
same,B. signalgrass plant response rating,"[5]; Preemergence, Rate 62 g/ha, scale of 0 to 10 where 0 is no effect and 10 is complete control",3
same,"Plant response rating, B. signalgrass",[5]; [19],3
same,B. signalgrass plant response rating,[5]; [20],8
same,B. signalgrass plant response rating,[5]; [24],6
same,B. signalgrass plant response rating,[5]; [22],8
same,B. signalgrass plant response rating,[5]; [23],9
same,"Plant response rating, Giant foxtail",[6]; [17],4
same,Giant foxtail plant response rating,[6]; [18],8
same,"Plant response rating, Giant foxtail",[6]; [19],9
same,Giant foxtail plant response rating,[6]; [20],9
same,Giant foxtail plant response rating,[6]; [21],8
same,Giant foxtail plant response rating,[6]; [24],8
same,Giant foxtail plant response rating,[6]; [22],8
same,Giant foxtail plant response rating,[6]; [23],9
same,"Plant response rating, Morningglory",[7]; [17],10
same,Morningglory plant response rating,[7]; [18],10
same,"Plant response rating, Morningglory",[7]; [19],0
same,Morningglory plant response rating,[7]; [20],1
same,Morningglory plant response rating,[7]; [21],0
same,Morningglory plant response rating,[7]; [24],10
same,Morningglory plant response rating,[7]; [22],10
same,Morningglory plant response rating,[7]; [23],1
same,"Plant response rating, Crabgrass",[8]; [17],5
same,Crabgrass plant response rating,[8]; [18],5
same,"Plant response rating, Crabgrass",[8]; [19],9
same,Crabgrass plant response rating,[8]; [20],9
same,Crabgrass plant response rating,[8]; [21],8
same,Crabgrass plant response rating,[8]; [24],9
same,Crabgrass plant response rating,[8]; [22],9
same,Crabgrass plant response rating,[8]; [23],9
same,"Plant response rating, Cocklebur",[9]; [17],0
same,Cocklebur plant response rating,[9]; [18],0
same,"Plant response rating, Cocklebur",[9]; [19],0
same,Cocklebur plant response rating,[9]; [20],0
same,Cocklebur plant response rating,[9]; [21],0
same,Cocklebur plant response rating,[9]; [24],0
same,Cocklebur plant response rating,[9]; [22],0
same,Cocklebur plant response rating,[9]; [23],0
same,Redroot pigweed plant response rating,[10]; [18],0
same,"Plant response rating, Redroot pigweed",[10]; [19],8
same,Redroot pigweed plant response rating,[10]; [20],9
same,Redroot pigweed plant response rating,[10]; [21],8
same,Redroot pigweed plant response rating,[10]; [24],0
same,Redroot pigweed plant response rating,[10]; [23],9
same,"Plant response rating, Sugarbeets",[11]; [17],0
same,"Plant response rating, Sugarbeets",[11]; [19],0
same,Sugarbeets plant response rating,[11]; [20],3
same,Sugarbeets plant response rating,[11]; [21],0
same,Sugarbeets plant response rating,[11]; [24],0
same,Sugarbeets plant response rating,[11]; [22],3
same,Sugarbeets plant response rating,[11]; [23],7
same,"Plant response rating, Velvetleaf",[12]; [17],0
same,"Plant response rating, Velvetleaf",[12]; [19],1
same,Velvetleaf plant response rating,[12]; [20],3
same,Velvetleaf plant response rating,[12]; [21],0
same,Velvetleaf plant response rating,[12]; [24],0
same,Velvetleaf plant response rating,[12]; [22],0
same,Velvetleaf plant response rating,[12]; [23],5
same,"Plant response rating, Wheat",[13]; [17],0
same,"Plant response rating, Wheat",[13]; [19],3
same,Wheat plant response rating,[13]; [20],7
same,Wheat plant response rating,[13]; [21],0
same,Wheat plant response rating,[13]; [24],5
same,Wheat plant response rating,[13]; [22],5
same,Wheat plant response rating,[13]; [23],9
same,"Plant response rating, Soybean",[14]; [17],0
same,"Plant response rating, Soybean",[14]; [19],0
same,Soybean plant response rating,[14]; [20],0
same,Soybean plant response rating,[14]; [21],0
same,Soybean plant response rating,[14]; [24],2
same,Soybean plant response rating,[14]; [22],2
same,Soybean plant response rating,[14]; [23],0
same,"Plant response rating, Blackgrass",[15]; [17],2
same,Blackgrass plant response rating,[15]; [18],4
same,"Plant response rating, Blackgrass",[15]; [19],9
same,Blackgrass plant response rating,[15]; [20],9
same,Blackgrass plant response rating,[15]; [21],7
same,Blackgrass plant response rating,[15]; [24],5
same,Blackgrass plant response rating,[15]; [22],5
same,Blackgrass plant response rating,[15]; [23],9
same,"Plant response rating, Rape",[16]; [17],0
same,Rape plant response rating,[16]; [18],0
same,"Plant response rating, Rape",[16]; [19],4
same,Rape plant response rating,[16]; [20],6
same,Rape plant response rating,[16]; [21],0
same,Rape plant response rating,[16]; [24],0
same,Rape plant response rating,[16]; [22],0
same,Rape plant response rating,[16]; [23],8
